Measurements from US8114843B2, “Photoreactive regulator of protein function and methods of use thereof” (The Regents of the University of California, priority 2005, dated 2012).
In brackets after ≈: the same amount, converted by molar mass. Entries after “also recorded” stand apart in the source; their conditions may differ.

Key:
Solubility = type: physicochemical; conditions: for solubility: read-out: solubility limit
[1] = Photostationary state determination by NMR; type: physicochemical; conditions: MAG-1 conjugated to β-mercaptoethanol, D2O
Description: Cis-trans photoisomerization of MAG-1 conjugated with β-mercaptoethanol (see Supplementary Methods online) was studied by ^1H NMR, with in situ irradiation of sample using a Polychrom V system monochromator (Till Photonics) containing a 150 W Xenon short arc lamp with an output range of 320-680 nm (29). The half-power bandwidth was 14 nm. A 500 μl aliquot of a 100 μM sample in D2O was prepared in a screw-capped 528-TR-7 NMR tube (Wilmad). A FT-600-UMT fiber optic cable (NA 0.39) (Thorlabs) was coupled at one end to the monochromator using a custom fitting and the other end inserted into the NMR tube a few millimeters above the solution. Each sample was irradiated at the desired wavelength for 30 minutes to reach the photostationary state and 480 scans were required to obtain reasonable signal-to-noise ratios. The output from the fiber optic cable between 340-480 nm ranged from 0.3-9.0 μW/cm^2. Data were processed by isolating aromatic cis-trans ^1H signals and summing their integrals to 1.0. All data were obtained in triplicate and averaged. This analysis will be detailed further in a future paper by Banghart, M. R. et al. (in preparation).

hippocampal neurons = assay: Live-Dead viability/cytotoxicity assay after MAG exposure; conditions: 12 hours continuous exposure, several concentrations; listed as MAG
Description: Neuronal survival following 12 hours of continuous exposure to several concentrations of MAG was also examined.

iGluR6 = target: T1, iGluR6 (Rattus norvegicus, UniProt P42260); assay: Calcium imaging of iGluR6 activity in HEK293 cells; type: cell-based
T1 construct: expressed in transfected cells; host or cells: HEK293
Description: HEK293 cells were plated at approximately 3×10^6 cells/ml on poly-L-lysine-coated glass coverslips (Deutsche Spiegelglas, Carolina Biological) and maintained in DMEM with 5% fetal bovine serum, 0.2 mg/ml streptomycin, and 200 U/ml penicillin at 37° C. Cells were transiently transfected with various plasmids using lipofectamine 2000 (Invitrogen). The amount of total transfected iGluR6 DNA and enhanced yellow fluorescent protein (EYFP) fusion DNA per well was fixed at 4 μg and 200 ng, respectively. All recordings were carried out 36 to 48 h after transfection.
—Cells were washed in PBS and loaded with 5 μM FURA-2-AM (Molecular Probes) for 30 min. […] Fluorescence was monitored on an inverted microscope system (Nikon). […] L-Glutamate was applied as reported in text and figures. The results are representative data from multiple cells in at least two independent cultures.

[2] = test system: cultured hippocampal neurons; assay: Live/Dead assay after PAL treatment; type: cell-based; conditions: 200 μM
From the text: Live/Dead assay. After PAL treatment, hippocampal neurons were processed for the live dead assay (Molecular Probes) according to the manufacturer's instructions. Cells were counted in 4-8 fields for each treatment condition.

wild-type Shaker (E422) = target: T2, wild-type Shaker (E422) (Drosophila melanogaster, UniProt P08510, DEL6-46); assay: PAL photoswitching, whole-cell patch clamp in HEK293 cells; type: cell-based
T2 construct: expressed in transfected cells; host or cells: HEK293
Description: Cell culture and transfection. HEK293 cells were grown in DMEM containing 5% fetal bovine serum, at 37° C., 7% CO2. For electrophysiology, cells were plated at 12×10^5 cells/cm^2 on poly-L-lysine coated coverslips and transfected using the calcium phosphate method. Recordings were performed 24-36 hours after transfection.
(§1) PAL attachment. HEK293 and hippocampal cells were rinsed in extracellular solution containing in mM: 138 NaCl, 1.5 KCl, 1.2 MgCl2, 2.5 CaCl2, 5 HEPES, 10 glucose and incubated at 37° C. in the dark with 200-250 μM PAL for 15 minutes. For slices, AAQ was diluted to 200 μM in aCSF and treatment was performed in the dark at room temperature for 10 minutes.
(§2) Electrophysiological recording. Recordings from HEK293 and hippocampal neurons were made in the whole-cell patch clamp configuration using a PC-501A amplifier (Warner Instruments). Pulse protocols and measurements were carried out with pCLAMP and a Digidata 1322 interface (Axon Instruments). For voltage-clamp experiment, cells were held at −70 mV. Data was recorded at 20 kHz and filtered at 2 kHz. Recording pipettes with 2.5-4 MΩ resistance were filled with intracellular solution containing in mM: 10 NaCl, 135 K-gluconate, 10 HEPES, 2 MgCl2, 2 MgATP, 1 EGTA, pH 7.4.
Illumination was provided using a xenon lamp (Sutter Instruments) with narrow band pass filters (380 BP10 for UV and 500 BP5 for visible light respectively). Excitation filters were changed using a lambda 10-2 filter changer (Sutter Instruments) controlled via pCLAMP software.
Percent photoswitching was defined as the difference between current in UV and visible light divided by current in UV. All data shown in bar graphs are averages±standard error of the mean.

Purkinje neurons = assay: Loose-patch extracellular recording in cerebellar slices; type: cell-based, rat; conditions: gabazine added
Description: Brain Slice Preparation. Parasagittal cerebellar slices were prepared using standard techniques approved by the UCLA Animal Care Committee. […] PAL attachment. […] For cerebellar slices, neuronal cell bodies were visualized using an upright microscope with a 40× water immersion lens and equipped with an infrared-DIC enhancement. Loose-patch extracellular recordings were performed using an Axopatch 200B amplifier (Axon Instruments). Electrophysiological recordings were filtered at 1 KHz and digitized at 2-4 KHz. Pipettes were typically 1.4-2.0 MΩ for recordings from PNs and 3.0-3.5 MΩ for interneurons and filled with aCSF. […] All recordings were performed at room temperature. […] Excitation filters were changed using a lambda 10-2 filter changer (Sutter Instruments) controlled via pCLAMP software.

[3] = target: Shaker H4 (Δ6-46, E422C, T449V) (Drosophila melanogaster, UniProt P08510, DEL6-46/E422C/T449V); assay: Patch recordings of MAL-AZO-QA-modified Shaker channels in Xenopus oocytes; type: cell-based
Description: Xenopus oocytes were injected with […] of mRNA encoding Shaker H4, with the following mutations: Δ6-46, E422C, T449V. […] Devitillenized oocytes were recorded from 2-10 days post-injection using standard patch-clamp methods. For outside-out patches, glass patch pipettes (2-4 MΩ) were filled with a solution containing (in mM) 100 KCl, 10 HEPES, 0.1 CaCl2, 0.5 MgCl2, and 10 EGTA, while the bath contained 10 KCl, 90 NaCl, 10 HEPES, 0.1 CaCl2, 0.5 MgCl2, and 10 EGTA. For inside-out patches, patch pipettes and bath both contained 100 KCl, 10 HEPES, 0.1 CaCl2, 0.5 MgCl2, and 10 EGTA. The pH of all solutions was 7.1. Solid MAL-AZO-QA was dissolved as a concentrated stock solution in DMSO and stored at −20° C. until the day of use. Stocks were diluted into oocyte bath solution to final concentrations of 10 μM or 100 μM. […] Pulse protocols and measurements were performed with pCLAMP software, a DigiData 1200 series interface, and a PC-505 amplifier (Warner Instruments). Samples were taken at 10 kHz and the data was filtered at 1 kHz. Patches were held at −90 mV, pulsed to −100 mV for 60 msec to monitor leak, and pulsed to −20 mV for 30-100 msec at 1 Hz to elicit Shaker currents. The peak of the Shaker currents was measured to minimize the contribution of slow inactivation. Patches with a leak conductance>100 pS were not included in analysis.
Discrete wavelengths of light (+/−10 nm) were focused on patches through a quartz coverslip with a Fluor 20×, 0.5 NA objective lens (Nikon). Output intensity was measured for wavelengths between 300 and 600 nm. The measured output intensities for wavelengths between 340-600 nm ranged from 0.324e-8 to 6.23e-8 W/cm^2. Differences in light intensities at different wavelengths were taken into account when determining action spectra for channel block and unblock.

[4] = test system: hippocampal pyramidal neurons transfected with the multiply-mutated Shaker channel; assay: Current clamp recordings from cultured hippocampal neurons treated with MAL-AZO-QA; type: cell-based, rat
Description: Primary dissociated hippocampal cultures were prepared from E18-19 Sprague-Dewey rat embryos and grown on glass cover slips in serum-containing media and incubated in 7% CO2 in air at 37° C. Cells were co-transfected with GFP along with the modified Shaker channel described above with additional L366A and V454L mutations. Transfections with Lipofectamine 2000™ were performed at 12-14 DIV. About 10% of the cultured neurons appeared GFP-positive at 2-3 days after transfection. Coverslips containing the neurons were treated at 37° C. for 15 min with 300 μM MAL-AZO-QA in an extracellular recording solution containing (in mM) 135 NaCl, 5 KCl, 1.2 MgCl2, 5 HEPES, 2.5 CaCl2, and 10 glucose at pH 7.4. Patch pipettes (7-10 MΩ) were filled with 10 NaCl, 135 K-gluconate, 10 HEPES, 2 MgCl2, 2 Mg-ATP, and 1 EGTA at pH 7.4. After washout of MAL-AZO-QA with extracellular solution, membrane potential was recorded at room temperature under whole-cell current clamp with an AXOPATCH 200A amplifier (Axon Instruments) and filtered at 10 kHz. Initial recordings were made at resting potential to evaluate the effects of light on spontaneous activity. In experiments where we wanted to quantify the effect of light on firing (e.g. FIG. 4b), cultures were treated with 6-cyano-7-nitroquinoxaline-2,3-dione (CNQX) (1 μM) and bicuculline (10 μM) to silence synaptic activity. Baseline currents were adjusted to set the membrane potential at −50 mV before depolarizing current steps ranging from 0.01-0.03 nA were applied to evoke action potentials. Cells were irradiated with a Lambda-LS illuminator containing a 125 watt xenon arc lamp (Sutter Instruments Company), equipped with narrow bandpass (+/−10 nm) filters through a Fluor 20×, 0.5 NA objective lens (Nikon). Variability among data is expressed as mean+/−SEM, unless noted otherwise.

[5] = test system: voltage-gated outward current (endogenous K+ channels) in cultured hippocampal neurons; assay: Photocontrol of K+ current in cultured hippocampal neurons; type: cell-based, rat; conditions: 200 μM, 15 min in the dark
Description: Hippocampal neurons were prepared from neonatal Sprague-Dawley rats according to standard procedures (Goslin) and grown on poly-L-lysine coated coverslips in MEM supplemented with 5% fetal bovine serum, B27 (Invitrogen), glutamine and serum extender (BD Biosciences). Animal care and experimental protocols were approved by the UC Berkeley Animal Care and Use Committee. Recordings were performed 9-16 days after plating. The Shaker construct also contains an N-terminal deletion (Δ6-46) to minimize fast inactivation.
as §1
as §2, with “Recording pipettes with 2.5-4 MΩ resistance were filled with intracellular solution containing in mM: 10 NaCl, 135 K-gluconate, 10 HEPES, 2 MgCl2, 2 MgATP, 1 EGTA, pH 7.4.” left out

T1 sequence (P42260 32-908): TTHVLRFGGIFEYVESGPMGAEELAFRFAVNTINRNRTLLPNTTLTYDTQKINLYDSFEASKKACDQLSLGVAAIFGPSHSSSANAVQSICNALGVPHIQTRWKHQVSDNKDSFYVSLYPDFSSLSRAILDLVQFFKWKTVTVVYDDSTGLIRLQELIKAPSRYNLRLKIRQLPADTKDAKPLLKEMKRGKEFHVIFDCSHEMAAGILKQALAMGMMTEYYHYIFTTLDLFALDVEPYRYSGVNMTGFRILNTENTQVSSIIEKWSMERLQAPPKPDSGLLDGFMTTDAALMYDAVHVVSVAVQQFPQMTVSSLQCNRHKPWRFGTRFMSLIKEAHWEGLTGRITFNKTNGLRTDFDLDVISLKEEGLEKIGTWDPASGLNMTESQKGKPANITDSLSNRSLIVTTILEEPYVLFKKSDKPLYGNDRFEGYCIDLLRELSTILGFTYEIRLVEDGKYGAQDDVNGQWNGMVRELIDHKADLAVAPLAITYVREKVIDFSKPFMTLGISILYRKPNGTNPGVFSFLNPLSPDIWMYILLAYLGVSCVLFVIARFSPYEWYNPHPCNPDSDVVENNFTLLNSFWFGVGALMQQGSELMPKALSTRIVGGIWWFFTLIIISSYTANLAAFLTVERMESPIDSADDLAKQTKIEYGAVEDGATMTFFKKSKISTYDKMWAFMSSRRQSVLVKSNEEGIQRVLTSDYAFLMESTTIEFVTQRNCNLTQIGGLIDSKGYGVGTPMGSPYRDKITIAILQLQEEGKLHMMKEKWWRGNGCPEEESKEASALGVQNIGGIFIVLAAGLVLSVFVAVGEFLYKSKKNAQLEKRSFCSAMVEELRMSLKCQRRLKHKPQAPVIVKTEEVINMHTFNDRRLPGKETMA
Sequence of Shaker H4 (Δ6-46, E422C, T449V) (P08510 other isoform, or with tags, fused parts or gaps DEL6-46/E422C/T449V): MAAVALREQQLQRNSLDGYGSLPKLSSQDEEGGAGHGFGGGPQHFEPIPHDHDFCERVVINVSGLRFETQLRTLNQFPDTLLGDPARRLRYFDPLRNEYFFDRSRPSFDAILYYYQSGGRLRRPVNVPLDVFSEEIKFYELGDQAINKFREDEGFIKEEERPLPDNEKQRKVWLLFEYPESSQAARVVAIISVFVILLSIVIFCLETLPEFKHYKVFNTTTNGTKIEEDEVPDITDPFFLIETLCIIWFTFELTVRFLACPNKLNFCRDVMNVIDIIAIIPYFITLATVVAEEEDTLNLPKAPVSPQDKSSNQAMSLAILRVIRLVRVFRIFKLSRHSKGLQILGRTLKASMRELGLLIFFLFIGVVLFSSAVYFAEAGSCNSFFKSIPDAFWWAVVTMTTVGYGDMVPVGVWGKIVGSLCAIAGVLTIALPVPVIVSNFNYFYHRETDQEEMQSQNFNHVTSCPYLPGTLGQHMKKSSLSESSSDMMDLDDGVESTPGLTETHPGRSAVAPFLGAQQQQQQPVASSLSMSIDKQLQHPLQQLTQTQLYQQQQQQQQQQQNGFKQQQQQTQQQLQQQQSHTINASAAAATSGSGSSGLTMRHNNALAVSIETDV
T2 sequence (P08510 other isoform, or with tags, fused parts or gaps DEL6-46): as the sequence (P08510 other isoform, or with tags, fused parts or gaps DEL6-46/E422C/T449V) above, with C381E, V408T counted along it

N[C@@H](CC(CCCC(=O)NCC(=O)Nc1ccc(/N=N/c2ccc(NC(=O)CN3C(=O)C=CC3=O)cc2)cc1)C(=O)O)C(=O)O (stereo in doubt) [MAG-1]
solubility (Solubility): 0.2 mM (≈ 124 µg/mL) | fraction in the cis-state ([1]; 380 nm): 93.0±0.6% | fraction in the trans-state ([1]; 500 nm): 83.0±0.6% | cell death compared with controls (hippocampal neurons): no difference; also recorded: no increase in cell death | light sensitivity conferred (Ca2+ increase at 380 nm, decrease at 500 nm) (iGluR6; wildtype iGluR6 (WT)): not on wildtype iGluR6

CC[N+](CC)(CC)CC(=O)Nc1ccc(/N=N/c2ccc(NC(=O)CCl)cc2)cc1 [CAQ]
water solubility compared with AAQ (Solubility): less water-soluble | death of neurons ([2]; 15 min): ~10% | loss of neurons ([2]; 60 min): ~15% | light-sensitivity conferred on channel (wild-type Shaker (E422)): conferred light-sensitivity

O=c1[nH]c2cc([N+](=O)[O-])c([N+](=O)[O-])cc2[nH]c1=O [DNQX, 6,7-dinitroquinoxaline-2,3-[1H,4H]-dione, reference compound]
solubility (Solubility): 4 mM (≈ 1010 µg/mL)

COc1ccc(-c2ccc(=N)n(CCCC(=O)O)n2)cc1 [Gabazine, reference compound]
basal firing rate of Purkinje cells (Purkinje neurons): ~15 Hz

CC[N+](CC)(CC)CC(=O)Nc1ccc(/N=N/c2ccc(NC(=O)CN3C(=O)C=CC3=O)cc2)cc1 [MAL-AZO-QA]
wavelength most effective in unblocking channels ([3]; action spectrum, inside-out patches): 380 nm | return of unblocked channels to the blocked state in the dark ([3]; dark): > 5 min | τ1 of current block in dark (biexponential) ([3]; dark): 0.49 min | τ2 of current block in dark (biexponential) ([3]; dark): 4.79 min | current unblocked by ultraviolet light ([3]; inside-out patch, oocytes treated with 100 μM for 30 min): ≤ 1 nA | reduction of voltage-gated Shaker current ([3]; outside-out patch, 10 μM, over 4 min): > 60% | time for unblock and re-block to nearly reach steady-state ([3]; standard epifluorescence illumination): ≤ 5 s | time to silence spontaneous action potentials ([4]; 390 nm light): ≤ 3 s | decrease in number of action potentials elicited by a depolarizing step ([4]; 390 nm light, n=4): 79% | onset of restored activity in the dark after silencing ([4]; dark): > 30 s | effect of light on treated neurons expressing GFP without the Shaker channels ([4]; n=4): no effect | percent of the outward current that could be photoswitched [5]: 2±5%

Cl.N[C@@H](C[C@@H](CCCC(=O)NCC(=O)Nc1ccccc1)C(=O)O)C(=O)O [tether model 3]
solubility (Solubility): 10 mM | maximal response compared with saturating glutamate (iGluR6): similar | EC50 (iGluR6; FURA-2-AM calcium imaging, HEK293, read-out: EC50 for activating iGluR6): 180 µM
